The values below come from paper PMC3580115 (Journal of natural products, 2012).

In brackets after ≈: the same amount, converted by molar mass. Read-outs that look alike come from different tables or passages of the source. Some results are limits rather than exact numbers.

The conditions of data set [1]: from bulbs of Z. candida; cited from earlier work.
The nature of data set [2]: MTT cytotoxicity assay, panel statement over the five cancer cell lines. The conditions noted are these: human. In kind it is cell-based, human. Background: Tetrazolium dyes change colour on reduction, which living cells bring about.
Data set [3] deals with five human cancer cell lines. Described as above. In kind it is cell-based. The conditions noted are these: for selectivity index compared to the Beas-2B cell line: cancer cell lines versus Beas-2B.
Setting [4] is: comparison in words, Table S1 not available.

On to `O=C1N[C@H]2[C@H](O)[C@H](O)[C@@H](O)C[C@@H]2c2cc3c(c(O)c21)OCO3` (relative stereo) [trans-dihydronarciclasine], for which the “IC50 as cytostatic agent” value in data set [1] is on record as 3.2 ng/mL (≈ 0.0103 µM). For `CO[C@@H]1C=C[C@@]23c4cc5c(cc4C(O)[N+](C)(C[C@@H]2O)[C@H]3C1)OCO5.[Cl-]` (stereo partly drawn) [Compound 1, N-methylhaemanthidine chloride], in data set [2], the IC50 – broadly, the concentration at which inhibition is half-maximal – at 48 h lay in the range of 0.81 to 13 µM. Also, the “selectivity index compared to the Beas-2B cell line” value (from here on “selectivity index”) in data set [3] is on record as at most 10. In addition, the “cytotoxicity compared with positive control cis-platin” value in data set [3] (setting [4]) is on record as “more potent cytotoxicity than one of the positive controls (cis-platin)”. Consider `CO[C@@H]1C=C[C@@]23c4cc5c(cc4CN(C[C@@H]2O)[C@H]3C1)OCO5` [Compound 2, haemanthamin], for which the IC50 at 48 h in data set [2] was in the range of 0.81 to 13 µM. Besides, the “selectivity index” value in data set [3] is at most 10. The “cytotoxicity compared with positive control cis-platin” value in data set [3] (setting [4]) was “more potent cytotoxicity than one of the positive controls (cis-platin)”. `CO[C@@H]1C=C[C@@]23c4cc5c(cc4C(=O)O[C@H]2CN(C)[C@H]3C1)OCO5` [Compound 3, 3-epimacronine] registered an IC50 at 48 h in data set [2] of over 10 µM.

Take `CO[C@@H]1C=C[C@@]23c4cc5c(cc4CO[C@]2(O)CN(C)[C@H]3C1)OCO5` [Compound 4, (+)-tazettine]: the IC50 at 48 h in data set [2] was over 10 µM. Still for that read-out and setting: next, `CO[C@H]1C=C[C@@]23c4cc5c(cc4CN(C)[C@@H]2C(=O)N(C)[C@H]3C1)OCO5` [Compound 5, N-methyl-5,6-dihydroplicane]: over 10 µM. In data set [2], `COc1cc2c(c(OC)c1OC)[C@@H](OC)O[C@@H]1CC=C3CCN(C)[C@H]3[C@H]21` [Compound 6, O-methylnerinine] registered an IC50 at 48 h of over 10 µM. On the same count and under the same terms, the value for `CCOC(=O)CCn1c(=O)c2cc3c(cc2c2ccccc21)OCO3` [Compound 7, N-ethoxycarbonylethylcrinasiadine] was over 10 µM. Still for that read-out and setting: next, `CCOC(=O)CCCn1c(=O)c2cc3c(cc2c2ccccc21)OCO3` [Compound 8, N-ethoxycarbonylpropylcrinasiadine]: over 10 µM. In turn, `O=c1c2cc3c(cc2c2ccccc2n1CCc1ccccc1)OCO3` [Compound 9, N-phenethylcrinasiadine] returned an IC50 at 48 h in data set [2] of 0.81 to 13 µM. Further, in data set [3], the “cytotoxicity compared with positive control cis-platin” value is listed as “more potent cytotoxicity than one of the positive controls (cis-platin)” and the “selectivity index” value was at most 10. On to `CC(C)CCn1c(=O)c2cc3c(cc2c2ccccc21)OCO3` [Compound 10, N-isopentylcrinasiadine], for which the IC50 at 48 h in data set [2] was over 10 µM. The same measure, in the same setting: next, `Cn1c(=O)c2cc3c(cc2c2ccccc21)OCO3` [Compound 11, N-methylcrinasiadine]: over 10 µM; `c1ccc2c(c1)ncc1cc3c(cc12)OCO3` [Compound 12, trisphaeridine]: over 10 µM. On the same count and under the same terms, next, `CN1Cc2cc3c(cc2-c2ccccc21)OCO3` [Compound 13, 5,6-dihydrobicolorine]: over 10 µM. `O[C@H]1[C@H]2c3cc4c(cc3CN3CCC(=C[C@@H]1O)[C@H]23)OCO4` [Compound 14, lycorine]: in data set [2], the IC50 at 48 h lay in the range of 0.81 to 13 µM. Besides, the “selectivity index” value in data set [3] is at most 10. Besides, the “cytotoxicity compared with positive control cis-platin” value in data set [3] (setting [4]) is “more potent cytotoxicity than one of the positive controls (cis-platin)”. As to `C/C=C/C=C/C(=O)N1C[C@H](C)NC[C@H]1C` [Compound 15, nigragillin], in data set [2], the IC50 at 48 h is over 10 µM.
